Results on 19 compounds are retold here after the SangsterLogP compilation.

Structures are written as SMILES.

Turning to `CC(C)CCOC(=O)c1ccccc1`, the logP amounted to 4.1.
The compound `COc1cc(CC(=O)O)ccc1O` came in with a logP of 1.18.
The compound `COc1cc(C(O)C(=O)O)ccc1O` (centres undefined) gave a logP of 0.84.
Then `O=C(O)CCn1ccc2ccccc21`, with 2.2.
Under `O=C(O)c1ccc(O)c(O)c1` stands 0.99; under `O=C(O)c1cc(O)c(O)c(O)c1`, 0.72; under `O=C(O)Cn1ccc2ccccc21`, 1.92.
Under `O=C(O)Cc1ccc(O)c(O)c1` stands 0.98; under `CCCCOC(=O)c1ccccc1`, 3.68; under `O=C(O)c1cc2ccccc2cc1O`, 3.05.
`O=C(O)c1cc(O)cc(O)c1`: the logP is 0.94.
`COc1cccc(C(O)C(=O)O)c1` (centres undefined) gave a logP of 1.33.
Then `O=C(O)Cn1ccc2cc(O)ccc21`, with 1.17.
Then `O=C(O)Cc1cc(O)ccc1O`, with 0.86; and `CCC(=O)c1ccccc1`, with 2.3.
Then `COc1cccc(/C=C/C(=O)O)c1`, with 2.37; and `O=C(O)Cc1ccc(O)cc1`, with 1.26; and `O=C(O)C1CCCCC1`, with 1.96.
In turn, `O=C(O)Cc1ccccc1O` displayed a logP of 1.47.
